Results reported in patent publication US11584744B2 (UNIVERSITY OF WASHINGTON, priority 2017, dated 2023).
Values after ≈ are worked out from the molar mass of the structure shown. Where two headings read alike, the source gives them in different places.

Legend:
MetRS (T. brucei) = target: T1, MetRS (T. brucei) (Trypanosoma brucei brucei, UniProt Q38C91); assay: MetRS (T. brucei) enzyme inhibition; type: biochemical
T1 sequence (Q38C91 1-773): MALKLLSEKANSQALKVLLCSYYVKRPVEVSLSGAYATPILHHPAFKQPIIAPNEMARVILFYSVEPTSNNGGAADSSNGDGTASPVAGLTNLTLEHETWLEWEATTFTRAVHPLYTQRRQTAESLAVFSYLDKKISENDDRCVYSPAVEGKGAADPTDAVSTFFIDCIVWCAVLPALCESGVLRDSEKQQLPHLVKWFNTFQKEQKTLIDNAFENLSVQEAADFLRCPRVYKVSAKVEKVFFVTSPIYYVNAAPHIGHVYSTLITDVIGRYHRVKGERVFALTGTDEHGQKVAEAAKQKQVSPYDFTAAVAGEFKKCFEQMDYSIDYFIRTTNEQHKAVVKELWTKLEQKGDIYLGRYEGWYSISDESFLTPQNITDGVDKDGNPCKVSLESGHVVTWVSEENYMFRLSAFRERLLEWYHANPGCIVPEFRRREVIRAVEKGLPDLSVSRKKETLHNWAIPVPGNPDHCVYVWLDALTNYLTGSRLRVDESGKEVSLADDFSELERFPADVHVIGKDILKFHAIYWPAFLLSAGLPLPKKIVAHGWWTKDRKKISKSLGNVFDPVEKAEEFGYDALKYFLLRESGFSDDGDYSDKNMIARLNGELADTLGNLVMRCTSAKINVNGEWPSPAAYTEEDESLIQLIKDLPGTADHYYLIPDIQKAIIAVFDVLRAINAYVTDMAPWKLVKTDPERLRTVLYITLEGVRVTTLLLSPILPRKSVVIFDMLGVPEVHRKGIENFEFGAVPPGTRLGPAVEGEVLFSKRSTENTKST

MetRS (C. parvum) = MetRS (C. parvum) (Cryptosporidium parvum, UniProt Q5CVN0); assay: MetRS (C. parvum) enzyme inhibition; type: biochemical
Chain of MetRS (C. parvum) (Q5CVN0 entry or part of it): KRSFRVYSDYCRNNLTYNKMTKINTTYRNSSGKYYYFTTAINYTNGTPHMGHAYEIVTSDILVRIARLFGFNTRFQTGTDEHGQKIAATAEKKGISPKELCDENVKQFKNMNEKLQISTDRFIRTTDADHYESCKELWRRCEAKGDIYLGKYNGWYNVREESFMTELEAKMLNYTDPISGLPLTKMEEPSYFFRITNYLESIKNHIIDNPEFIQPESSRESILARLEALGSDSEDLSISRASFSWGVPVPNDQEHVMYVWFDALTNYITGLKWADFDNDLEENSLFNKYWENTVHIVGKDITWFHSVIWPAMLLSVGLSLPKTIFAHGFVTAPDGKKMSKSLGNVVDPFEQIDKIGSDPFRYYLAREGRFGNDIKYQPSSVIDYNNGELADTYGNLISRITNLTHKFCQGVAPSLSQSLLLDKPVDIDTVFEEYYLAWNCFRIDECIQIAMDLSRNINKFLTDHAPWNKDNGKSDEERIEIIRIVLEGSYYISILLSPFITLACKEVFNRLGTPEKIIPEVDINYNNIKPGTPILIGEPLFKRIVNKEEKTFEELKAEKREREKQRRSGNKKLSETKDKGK

C. parvum = C. parvum growth inhibition; type: cell-based, Cryptosporidium parvum; details: Cryptosporidium parvum; read-out: (J) C. parvum EC50
T. cruzi = T. cruzi growth inhibition; type: cell-based, Trypanosoma cruzi; details: read-out: (E) T. cruzi EC50
T. brucei = T. brucei growth inhibition; type: cell-based, Trypanosoma brucei; details: read-out: (D) T. brucei EC50
[1] = system: E. faecium VRE (ATCC 51559); assay: MIC susceptibility testing; type: cell-based, Enterococcus faecium; details: for MIC: Enterococcus faecium, read-out: (I) E. faecium (ATCC 51559) MIC
Text: Media and culture conditions. Mueller Hinton broth (MHB), cation adjusted Mueller Hinton broth (CA-MHB), and Brain Heart Infusion broth (BHI) were purchased from Becton Dickinson (Franklin Lakes, N.J.). Tryptic soy agar (TSA) plates, TSA with 5% sheep blood plates, and CA-MHB with 3% laked horse blood were purchased from Remel (San Diego, Calif.). MHB was used to assay all Staphylococcus aureus strains. CA-MHB was used for Staphylococcus epidermidis, Enterococcus faecalis, Enterococcus faecium, Escherichia coli, and Pseudomonas aeruginosa. CA-MHB supplemented with 3% laked horse blood was used for Streptococcus pneumoniae and Streptococcus pyogenes. Staphylococcus, Enterococcus, Escherichia, and Pseudomonas strains were cultured at 37° C. with ambient air. Streptococcus strains were cultured in 37° C. with 5% CO2. Separate conditions for radiolabeled precursor uptake assays are described below.
Susceptibility testing: Minimum inhibitory concentration (MIC) determinations were performed in triplicate in 96-well round bottom microtiter plates (Corning, Corning N.Y.) as described by the Clinical and Laboratory Standards Institute (CLSI). Serial two-fold dilutions of compounds were added to plates in 50 μL volumes. An additional 50 μL of media containing bacterial cells (1×10^6 CFUs/mL) was then added to each well. Maximum DMSO concentrations were 0.5%. Plates were incubated at 37° C. for at least 18 h before reading the susceptibility result by optical absorbance (OD600) using a BioTek ELx800. The lowest concentration causing ≥90% growth inhibition compared to the untreated control was recorded as the MIC (and also corresponded to the visual MIC). MICs were measured at least twice and the higher value (if different) was recorded herein.

[2] = system: S. aureus MRSA (ATCC 33591); assay: MIC susceptibility testing; type: cell-based, Staphylococcus aureus; details: for MIC: Staphylococcus aureus, read-out: (G) MRSA (ATCC33591) MIC
Outline: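 CLSI broth microdilution in triplicate, 5×10^5 CFU/mL final, ≤0.5% DMSO; MHB for S. aureus, CA-MHB for E. coli and E. faecium, CA-MHB plus 3% laked horse blood for S. pyogenes (5% CO2).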

[3] = system: S. aureus MSSA (ATCC 29213); assay: MIC susceptibility testing; type: cell-based, Staphylococcus aureus; details: for MIC: Staphylococcus aureus, read-out: (F) S. aureus (ATCC 29213) MIC
[4] = read-out: (C) MetRS (C. parvum) IC50

| Structure (SMILES) | IC50 (MetRS (T. brucei)) | IC50 (MetRS (C. parvum); [4]) | EC50 (C. parvum) | EC50 (T. cruzi; Trypanosoma cruzi) | EC50 (T. brucei; Trypanosoma brucei) | MIC ([1]; E. faecium ATCC 51559) | MIC ([2]; MRSA ATCC33591) | (F) S. aureus (ATCC 29213) MIC ([3]; S. aureus ATCC 29213) | MIC ([3]; S. aureus ATCC 29213) | EC50 (T. cruzi) | EC50 (T. brucei) | IC50 (MetRS (C. parvum)) | MIC [1] | MIC [2] | MIC [3] | (G) MRSA (ATCC33591) MIC ([2]; MRSA ATCC33591) | (I) E. faecium (ATCC 51559) MIC ([1]; E. faecium ATCC 51559) |
| --- | --- | --- | --- | --- | --- | --- | --- | --- | --- | --- | --- | --- | --- | --- | --- | --- | --- |
| CCn1c(C(O)c2ccc(Cl)cc2Cl)cn(Cc2nc3nc(Cl)ccc3[nH]2)c1=O (stereo not drawn) [Compound 2204, 1-({5-chloro-1H-imidazo[4,5-b]pyridin-2-yl}methyl)-4-[(2,4-dichlorophenyl)(hydroxy)methyl]-3-ethyl-2,3-dihydro-1H-imidazol-2-one] | 53 nM | 82.5 nM | 1920 nM | 366 nM | 6.38 nM | 0.167 µg/mL (≈ 0.369 µM) | 0.293 µg/mL (≈ 0.647 µM) | 0.927 µg/mL | 1.11 µg/mL (≈ 2.45 µM) | – | – | – | – | – | – | – | – |
| O=c1n(Cc2nc3ccc(Cl)nc3[nH]2)cc(Cc2ccc(Cl)cc2Cl)n1CCO [Compound 2213, 1-({5-chloro-1H-imidazo[4,5-b]pyridin-2-yl}methyl)-4-[(2,4-dichlorophenyl)-methyl]-3-(2-hydroxyethyl)-2,3-dihydro-1H-imidazol-2-one] | < 40 nM | < 40 nM | 1910 nM | 63.4 nM | 2.12 nM | 0.272 µg/mL (≈ 0.601 µM) | 0.52 µg/mL (≈ 1.15 µM) | 0.574 µg/mL | 0.422 µg/mL (≈ 0.932 µM) | 71.3 nM | – | – | – | – | – | – | – |
| CCn1c(C(=O)c2ccc(Cl)cc2Cl)cn(Cc2nc3ccc(Cl)nc3[nH]2)c1=O [Compound 2203, 1-((5-chloro-3H-imidazo[4,5-b]pyridin-2-yl)methyl)-4-(2,4-dichlorobenzoyl)-3-ethyl-1,3-dihydro-2H-imidazol-2-one] | < 40 nM | 99.4 nM | > 2000 nM | 34.7 nM | 1.73 nM | 0.172 µg/mL (≈ 0.382 µM) | 0.359 µg/mL (≈ 0.797 µM) | – | 0.34 µg/mL (≈ 0.754 µM) | 45.2 nM | – | – | – | – | – | – | – |
| CCOC(=O)Cn1c(C(=O)c2ccc(Cl)cc2Cl)cn(Cc2nc3ccc(Cl)nc3[nH]2)c1=O [Compound 2215, ethyl 2-[3-({5-chloro-1H-imidazo[4,5-b]pyridin-2-yl}methyl)-5-(2,4-dichlorobenzoyl)-2-oxo-2,3-dihydro-1H-imidazol-1-yl]acetate] | < 40 nM | < 40 nM | > 2000 nM | 14.8 nM | < 0.91 nM | 0.272 µg/mL (≈ 0.535 µM) | 0.26 µg/mL (≈ 0.511 µM) | – | 0.298 µg/mL (≈ 0.586 µM) | 25.4 nM | 0.46 nM | – | – | – | – | – | – |
| Clc1ccc(Cc2cn(Cc3nc4nc(Cl)ccc4[nH]3)cn2)c(Cl)c1 [Compound 2189, 1-({5-chloro-1H-imidazo[4,5-b]pyridin-2-yl}methyl)-4-[(2,4-dichlorophenyl)methyl]-1H-imidazole] | < 40 nM | – | 2000 nM | 156 nM | 7.9 nM | – | – | – | – | – | – | < 40 nM | 0.704 µg/mL (≈ 1.79 µM) | 0.596 µg/mL (≈ 1.52 µM) | 0.676 µg/mL (≈ 1.72 µM) | – | – |
| COc1ccc(Cc2cn(Cc3nc4nc(Cl)ccc4[nH]3)c(=O)n2CC(C)(C)N)c(Cl)c1 [Compound 2208, 3-(2-amin0-2-methylpropyl)-1-({5-chloro-1H-imidazo[4,5-b]pyridin-2-yl}methyl)-4-[(2-chloro-4-methoxyphenyl)methyl]-2,3-dihydro-1H-imidazol-2-one] | < 40 nM | < 40 nM | > 2000 nM | 297 nM | – | 0.28 µg/mL (≈ 0.589 µM) | 1.8 µg/mL (≈ 3.79 µM) | 1.53 µg/mL | 2.4 µg/mL (≈ 5.05 µM) | – | – | – | – | – | – | – | – |
| COc1ccc(-c2nccc3nn(Cc4nc5nc(Cl)ccc5[nH]4)cc23)c(Cl)c1 [Compound 2247, 2-({5-chloro-1H-imidazo[4,5-b]pyridin-2-yl}methyl)-4-(2-chloro-4-methoxyphenyl)-2H-pyrazolo[4,3-c]pyridine] | – | 218 nM | > 2000 nM | 1650 nM | 200 nM | 1.08 µg/mL (≈ 2.54 µM) | 1.46 µg/mL (≈ 3.43 µM) | 1.43 µg/mL | 1.18 µg/mL (≈ 2.77 µM) | – | – | – | – | – | – | 1.58 µg/mL | – |
| CCn1c(Cc2ccc(Cl)cc2Cl)cn(Cc2nc3ccc(Cl)c(C#N)c3[nH]2)c1=O [Compound 2210, 6-chlor0-2-({4-[(2,4-dichlorophenyl)methyl]-3-ethyl-2-oxo-2,3-dihydro-1H-imidazol-1-yl}methyl)-1H-1,3-benzodiazole-7-carbonitrile] | < 40 nM | < 40 nM | > 2000 nM | 108 nM | 6.72 nM | 0.166 µg/mL (≈ 0.36 µM) | 0.298 µg/mL (≈ 0.647 µM) | – | 0.285 µg/mL (≈ 0.619 µM) | – | – | – | – | – | – | – | – |
| CC(C)(O)Cn1c(Cc2ccc(Cl)cc2Cl)cn(Cc2nc3ccc(Cl)nc3[nH]2)c1=O [Compound 2211, 1-((5-chloro-3H-imidazo[4,5-b]pyridin-2-yl)methyl)-4-(2,4-dichlorobenzyl)-3-(2-hydroxy-2-methylpropyl)-1,3-dihydro-2H-imidazol-2-one] | < 40 nM | 50.2 nM | 1170 nM | 21.7 nM | < 0.91 nM | 0.389 µg/mL (≈ 0.809 µM) | 0.489 µg/mL (≈ 1.02 µM) | 0.590 µg/mL | 0.493 µg/mL (≈ 1.03 µM) | 22.1 nM | 1.16 nM | – | – | – | – | – | 0.281 µg/mL |
| COc1ccc(-c2cccc3c2CN(Cc2nc4c(C#N)c(Cl)ccc4[nH]2)C3)c(Cl)c1 [Compound 2229, 5-chlor0-2-((4-(2-chloro-4-methoxyphenyl)isoindolin-2-yl)methyl)-1H-benzo[d]imidazole-4-carbonitrile] | – | 84.7 nM | 1980 nM | 650 nM | 91.4 nM | 0.327 µg/mL (≈ 0.728 µM) | 0.762 µg/mL (≈ 1.7 µM) | – | 0.926 µg/mL (≈ 2.06 µM) | – | – | – | – | – | – | – | – |
